Results: patent publication US20240025891A1 (Celgene Corporation, priority 2020, published 2024)

Each molecule was assayed on Onchocerca gutturosa adult male worms (assay: Onchocerciasis in vitro screening model Onchocerca gutturosa (worm motility score and MTT/formazan colorimetry)). Conditions: Onchocerca gutturosa, read-out: O. gutt Act class.
Method: Onchocerciasis: In Vitro Screening Model Onchocerca gutturosa
Parasite and cell cultures. Onchocerca gutturosa adult male worms were obtained by dissection from the nuchal ligament connective tissues of naturally infected cattle, from Gambia, W Africa.
The worms were maintained for at least 24 h in culture before use in Eagles Minimum Essential Medium with Earl's Salts (Gibco, UK)+10% heat inactivated new born calf serum (Gibco, UK)+antibiotic cover of 200 units/ml penicillin, 200 μg/ml streptomycin and 0.5 μg/ml amphotericin B (Sigma, UK). Only normally active specimens were used in the test. All cultures and assays were conducted at 37° C. under an atmosphere of 5% CO2 in air.
Drug sensitivity assays. Compound stock solutions were prepared in 100% DMSO unless otherwise indicated and diluted into the medium. Any unused compound stocks were stored at −20° C. Assays were performed in sterile 24-well (2 ml) plates (Falcon, UK).
Worms were then transferred individually to each well of the plate using fine forceps. Worm viability was assessed using 2 parameters: • The measurement of mean worm motility scores on a scale of 0 (immotile) to 10 (maximum) every 24 h, terminating at 120 h, using an Olympus inverted microscope. • The biochemical evaluation of worm viability using MTT/formazan colorimetry. The MTT assay was carried out after the last motility reading (120 h). Single intact worms were placed in each well of a 48-well plate (Falcon, UK) containing 0.5 ml of a solution consisting of 0.5 mg/ml MTT (Sigma UK) in phosphate buffered saline, and then incubated for 30 min at 37° C. The worms were removed, blotted carefully, and individually transferred to separate wells of a 96-well microtiter plate, each containing 200 μl of DMSO to solubilize the formazan. After 1 h the plate was gently agitated to disperse the color evenly and the absorbance value (optical density) of the resulting formazan solution was determined at 490 nm using a multi-well scanning spectrophotometer (Elisa-reader, Dynatech, UK). Inhibition of formazan formation was correlated with worm damage or death.
Primary screen. New compounds were usually tested at 1.25×10^−5 M. Also expressed in μg/ml.
Secondary screen. […] Serial 1 in 4 drug dilutions was carried out to find activity endpoint and EC50 values for motility reduction and inhibition of formazan formation were produced. EC50 values were determined using Excel or Origin V7 scientific graphing and data analysis software.
Work on CN(C)C(=O)C1CCCN(c2ccc(Nc3nc(-c4ccccn4)cs3)nc2)C1 (stereo not drawn) [Example 158, N,N-dimethyl-1-(6-(4-(pyridin-2-yl)thiazol-2-ylamino)pyridin-3-yl)piperidine-3-carboxamide] yielded an IC50 of less than 200 nM.
O=C(O)c1sc(Nc2cc(C(F)(F)F)ccn2)nc1-c1ccccn1 [Example 206, 4-(pyridin-2-yl)-2-(4-(trifluoromethyl)pyridin-2-ylamino) thiazole-5-carboxylic acid] showed an IC50 of less than 200 nM.
CC(=O)N(C)c1cc(C(F)(F)F)cnc1Nc1nc(-c2cc3c(cn2)N(C)CC3)cs1 [Example 76, N-methyl-N-(2-(4-(1-methyl-2,3-dihydro-1H-pyrrolo[2,3-c]pyridin-5-yl)thiazol-2-ylamino)-5-(trifluoromethyl)pyridin-3-yl)acetamide] gave an IC50 of less than 200 nM.
Cc1ccnc(Nc2nc(-c3ccccn3)c(C)s2)c1 [Example 132, 5-methyl-N-(4-methyl-pyridin-2-yl)-4-(pyridin-2-yl)thiazol-2-amine] showed an IC50 of 200 to 500 nM.
Cc1cc(C(F)(F)F)cnc1Nc1nc(-c2cc3c(cn2)N(C)CC3)cs1 [Example 97, 4-(1-methyl-2,3-dihydro-1H-pyrrolo[2,3-c]pyridin-5-yl)-N-(3-methyl-5-(trifluoromethyl)pyridin-2-yl)thiazol-2-amine] was tested, and the IC50 was less than 200 nM.
With CCCc1ccnc(Nc2nc(-c3ccccn3)cs2)c1 [Example 172, N-(4-propylpyridin-2-yl)-4-(pyridin-2-yl)thiazol-2-amine] the IC50 was 200 to 500 nM.
Cc1cccnc1Nc1cc(-c2ccc(OC3CCOCC3)cn2)n[nH]1 [Example 237, 3-methyl-N-(3-(5-(tetrahydro-2H-pyran-4-yloxy)pyridin-2-yl)-1H-pyrazol-5-yl)pyridin-2-amine] was tested, and the IC50 was 500 to 5000 nM.
Molecule CCOc1cnc(-c2csc(Nc3ncccc3C)n2)c(C)c1 [Example 75, 4-(5-ethoxy-3-methylpyridin-2-yl)-N-(3-methylpyridin-2-yl)thiazol-2-amine] has an IC50 of less than 200 nM.
Work on CC(C)c1cnc(Nc2nc(-c3ccccn3)cs2)cc1C(F)(F)F [Example 127, N-(5-isopropyl-4-(trifluoro-methyl)pyridin-2-yl)-4-(pyridin-2-yl)thiazol-2-amine] yielded an IC50 of 500 to 5000 nM.
Molecule Cc1sc(Nc2cc(C(=O)NCC(F)(F)F)ccn2)nc1-c1ccccn1 [Example 198, 2-(5-methyl-4-(pyridin-2-yl)thiazol-2-ylamino)-N-(2,2,2-trifluoroethyl) isonicotinamide] has an IC50 of less than 200 nM.
Molecule CN(C)CCNC(=O)c1sc(Nc2cc(C(F)(F)F)ccn2)nc1-c1ccccn1 [Example 208, N-(2-(dimethylamino)ethyl)-4-(pyridin-2-yl)-2-(4-(trifluoro-methyl)pyridin-2-ylamino) thiazole-5-carboxamide] has an IC50 of less than 200 nM.
With Cc1ccnc(Nc2nc(-c3cc(OC4CN(C)C4)ccn3)cs2)c1 [Example 98, 4-(4-(1-methylazetidin-3-yloxy)pyridin-2-yl)-N-(4-methylpyridin-2-yl)thiazol-2-amine] the IC50 was less than 200 nM.
O=C(c1ccnc(Nc2nc(-c3ccccn3)cs2)c1)N1CC(F)(F)C1 [Example 153, (3,3-difluoroazetidin-1-yl)(2-(4-(pyridin-2-yl)thiazol-2-ylamino)pyridin-4-yl)methanone] was tested, and the IC50 was less than 200 nM.
CCOc1ccc(-c2csc(Nc3nc(C)ccc3C)n2)nc1 [Example 86, N-(3,6-dimethylpyridin-2-yl)-4-(5-ethoxypyridin-2-yl)thiazol-2-amine] was tested, and the IC50 was less than 200 nM.
Molecule Cc1ccnc(Nc2nc(-c3ccccn3)c(CN3CCC3)s2)c1 [Example 183, 5-(azetidin-1-ylmethyl)-N-(4-methylpyridin-2-yl)-4-(pyridin-2-yl)thiazol-2-amine] has an IC50 of less than 200 nM.
In the case of CC(=O)N(C)c1cc(C(F)(F)F)cnc1Nc1nc(-c2ccc(OC(C)C)cn2)cs1 [Example 93, N-(2-(4-(5-isopropoxypyridin-2-yl)thiazol-2-ylamino)-5-(trifluoromethyl)pyridin-3-yl)-N-methylacetamide], the IC50 is reported as less than 200 nM.
Molecule Cc1cccnc1Nc1cc(-c2ccc(OC3CCOCC3)cn2)ns1 [Example 116, N-(3-methylpyridin-2-yl)-3-(5-(tetrahydro-2H-pyran-4-yloxy)pyridin-2-yl)isothiazol-5-amine] has an IC50 of 500 to 5000 nM.
Work on OCc1sc(Nc2cc(F)ccn2)nc1-c1ccccn1 [Example 193, (2-(4-fluoropyridin-2-ylamino)-4-(pyridin-2-yl)thiazol-5-yl)methanol] yielded an IC50 of less than 200 nM.
N#Cc1sc(Nc2cc(C(F)(F)F)ccn2)nc1-c1ccccn1 [Example 189, 4-(pyridin-2-yl)-2-(4-(trifluoromethyl)pyridin-2-ylamino) thiazole-5-carbonitrile] showed an IC50 of 500 to 5000 nM.
Cc1ccnc(Nc2ncc(-c3ncccc3C)o2)c1 [Example 230, 5-(3-methylpyridin-2-yl)-N-(4-methylpyridin-2-yl)oxazol-2-amine] was tested, and the IC50 was 500 to 5000 nM.
In the case of Cc1ccc(-c2csc(Nc3cc(C)ccn3)n2)nc1 [Example 1, N-(4-Methylpyridin-2-yl)-4-(5-methylpyridin-2-yl)thiazol-2-amine], the IC50 is reported as less than 200 nM.
CCOc1ccc(-c2csc(Nc3ncc(F)cc3C)n2)nc1 [Example 79, 4-(5-ethoxypyridin-2-yl)-N-(5-fluoro-3-methylpyridin-2-yl)thiazol-2-amine] gave an IC50 of less than 200 nM.
Cc1ccnc(Nc2cc(-c3ncccc3C)ns2)c1 [Example 118, 3-(3-methylpyridin-2-yl)-N-(4-methylpyridin-2-yl)isothiazol-5-amine] was tested, and the IC50 was 500 to 5000 nM.
Work on COc1ccnc(Nc2nc(-c3ccccn3)cs2)c1 [Example 121, N-(4-methoxypyridin-2-yl)-4-(pyridin-2-yl)thiazol-2-amine] yielded an IC50 of 200 to 500 nM.
Molecule O=C(NC1CCC(F)(F)CC1)c1ccnc(Nc2nc(-c3ccccn3)cs2)c1 [Example 151, N-(4,4-difluoro-cyclohexyl)-2-(4-(pyridin-2-yl)thiazol-2-ylamino) isonicotinamide] has an IC50 of less than 200 nM.
CCOc1cccc(-c2csc(Nc3ncccc3C)n2)n1 [Example 71] was tested, and the IC50 was 500 to 5000 nM.
With CCOc1ccc(-c2csc(Nc3ccc(C)cn3)n2)nc1 [Example 81, 4-(5-ethoxypyridin-2-yl)-N-(5-methylpyridin-2-yl)thiazol-2-amine] the IC50 was less than 200 nM.
Molecule c1ccc(-c2csc(Nc3cc(C4CCC4)ccn3)n2)nc1 [Example 168, N-(4-cyclobutyl-pyridin-2-yl)-4-(pyridin-2-yl)thiazol-2-amine] has an IC50 of less than 200 nM.
In the case of c1ccc(-c2csc(Nc3cc4ccccc4cn3)n2)nc1 [Example 128, N-(isoquinolin-3-yl)-4-(pyridin-2-yl)thiazol-2-amine], the IC50 is reported as less than 200 nM.
Molecule CCOc1ccc(-c2csc(Nc3ncc(C(F)(F)F)cc3C)n2)nc1 [Example 84, 4-(5-ethoxypyridin-2-yl)-N-(3-methyl-5-(trifluoromethyl)pyridin-2-yl)thiazol-2-amine] has an IC50 of 200 to 500 nM.
With c1ccc(-c2csc(Nc3cc(-c4ncccn4)ccn3)n2)nc1 [Example 174, 4-(pyridin-2-yl)-N-(4-(pyrimidin-2-yl)pyridin-2-yl)thiazol-2-amine] the IC50 was 200 to 500 nM.
O=C(NCC(F)(F)F)c1ccnc(Nc2nc(-c3ccccn3)cs2)c1 [Example 141, 2-(4-(pyridin-2-yl)thiazol-2-ylamino)-N-(2,2,2-trifluoroethyl) isonicotinamide] gave an IC50 of 200 to 500 nM.
Work on CCOc1cccnc1-c1csc(Nc2cc(C)ccn2)n1 [Example 72, 4-(3-ethoxypyridin-2-yl)-N-(4-methylpyridin-2-yl)thiazol-2-amine] yielded an IC50 of less than 200 nM.
Cc1ccnc(Nc2nc(-c3cccc(C)n3)cs2)c1 [Example 2] was tested, and the IC50 was 200 to 500 nM.
Molecule Cc1sc(Nc2cc(C(F)(F)F)c(C(C)C)cn2)nc1-c1ccccn1 [Example 186, N-(5-isopropyl-4-(trifluoromethyl)pyridin-2-yl)-5-methyl-4-(pyridin-2-yl)thiazol-2-amine] has an IC50 of less than 200 nM.
CC(=O)N(C)c1cc(C(F)(F)F)cnc1Nc1nc(-c2ccccn2)cs1 [Example 212, N-methyl-N-(2-(4-(pyridin-2-yl)thiazol-2-ylamino)-5-(trifluoro-methyl)pyridin-3-yl) acetamide] was tested, and the IC50 was less than 200 nM.
CCOc1ccnc(-c2csc(Nc3cc(C)ccn3)n2)c1 [Example 224, 4-(4-ethoxypyridin-2-yl)-N-(4-methylpyridin-2-yl)thiazol-2-amine] was tested, and the IC50 was 200 to 500 nM.
Cc1ccnc(Nc2nc(-c3ccccn3)c(CN3CCCC3)s2)c1 [Example 185, N-(4-methylpyridin-2-yl)-4-(pyridin-2-yl)-5-(pyrrolidin-1-ylmethyl) thiazol-2-amine] was tested, and the IC50 was 200 to 500 nM.
In the case of C[C@@H]1CN(Cc2sc(Nc3cc(C(F)(F)F)ccn3)nc2-c2ccccn2)C[C@H](C)O1 [Example 201, 5-(((2R,6S)-2,6-dimethyl-morpholino)methyl)-4-(pyridin-2-yl)-N-(4-(trifluoromethyl)pyridin-2-yl)thiazol-2-amine], the IC50 is reported as less than 200 nM.
With O=C(NCC1CC1)c1ccnc(Nc2nc(-c3ccccn3)cs2)c1 [Example 177, N-(cyclopropyl-methyl)-2-(4-(pyridin-2-yl)thiazol-2-ylamino) isonicotinamide] the IC50 was 500 to 5000 nM.
With Cc1ccnc(Nc2nc(-c3ccccn3)c(CCOC3CCC3)s2)c1 [Example 180, 5-(2-cyclobutoxy-ethyl)-N-(4-methylpyridin-2-yl)-4-(pyridin-2-yl)thiazol-2-amine] the IC50 was less than 200 nM.
Molecule CN1CCN(c2ccc(Nc3nc(-c4ccccn4)cs3)nc2)CC1 [Example 131, N-(5-(4-methyl-piperazin-1-yl)pyridin-2-yl)-4-(pyridin-2-yl)thiazol-2-amine] has an IC50 of less than 200 nM.
With O=C1CN(C(=O)c2ccnc(Nc3nc(-c4ccccn4)cs3)c2)CCN1 [Example 149, 4-(2-(4-(pyridin-2-yl)thiazol-2-ylamino)isonicotinoyl) piperazin-2-one] the IC50 was 500 to 5000 nM.
FC(F)(F)c1ccnc(Nc2nc(-c3ccccn3)c(COCC3CC3)s2)c1 [Example 166, 5-((cyclopropyl-methoxy)methyl)-4-(pyridin-2-yl)-N-(4-(trifluoromethyl)pyridin-2-yl) thiazol-2-amine] gave an IC50 of 200 to 500 nM.

Same assay, conditions: read-out: O. gutt Act class; O. gutturosa adult male worms in vitro
With “N- (cyclohexyl- methyl)- 4-(pyridin- 2-yl)-2-(4- (trifluoromethyl) pyridin-2- ylamino) thiazole-5- carboxamide [Example 202]” the IC50 was 500 to 5000 nM.
